The source of these data is EP2385948B1, “FUSED THIAZOLO AND OXAZOLO PYRIMIDINONES” (Torrent Pharmaceuticals Limited, priority 2009, dated 2011).

Test [1] concerns erythropoietin. As to the kind of experiment: In vitro erythropoietin induction (ELISA of cell culture supernatant). As to conditions: Homo sapiens, Hep3B, 16 h, read-out: EPO fold induction, Hep3B cell line, 200 uM, 16 hours, relative to vehicle control.
Experimental: Hep3B cell line (ATCC HB8064) was employed. Induction of erythropoietin was carried out for the indicated dose of compounds for 16 hours duration. At the end of 16 hours, cell culture medium was collected and centrifuged to remove any debris. Supernatant obtained was analyzed for erythropoietin by ELISA (R&D systems, USA). The results were expressed as fold induction as compared to vehicle control.
In test [2] the test system is VEGF. As to the kind of experiment: In vitro induction of VEGF (ELISA of cell culture supernatant). The test is classed as cell-based. As to conditions: Homo sapiens, Hep3B cell line, 16 hours, relative to vehicle control. The protocol:
Hep3B cell line (ATCC HB8064) was employed. […] Supernatant obtained was analyzed for VEGF by ELISA (R&D systems, USA). […]

The test system of test [3] is renal ischemia and reperfusion induced acute kidney injury model in rats. In words: Renal ischemia and reperfusion induced acute kidney injury model. The test is classed as in vivo. As to conditions: 24hrs post initiation of ischemia, from control group. Here is the method:
The efficacy of test compound to improve renal function was evaluated in a renal ischemia and reperfusion induced acute kidney injury model in rats. The beneficial effect of the compound was evaluated using two different treatment protocols. In one protocol treatment with test compound was given before onset of ischemia (pre-treatment) and the other protocol involed treatment with test compound initiated after the onset of ischemia (post-treatment).
Pre-ischemia intervention protocol: Rats were randomised into two groups, compound treated and vehicle control. Before initiation of bilateral renal ischemia, the animals in compound treatment group received multiple doses of compound no. 10 (i.e. pre treated) and control group received vehicle by i.p route.
Post-ischemia intervention protocol: Rats were randomised into two groups, compound treated and vehicle control. After intiation of bilateral renal ischemia, the animals in compound treatment group received multiple doses of compound no. 10 (i.e. post treated) and control group received vehicle in similar fashion by i.p route.
Induction of Renal ischemia and reperfusion in rats: All animals were anesthetized with pentobarbital sodium (50 mg/kg body wt). Homeothermic blanket was used to maintain a constant body temperature of 37°C during surgery and ischemia. A midline incision was made at the ventral side to access the kidneys and both renal pedicle were isolated and occluded for 35 mins using microclips, which was verified by the change of the renal color. After an ischemic period of 35 min, the microclips were removed and reperfusion initiated. The abdomen was closed and skin & muscles sutured and animal allowed to recover. Blood sample of 300 µl was taken via sublingual vein puncture at various predetermined time points.
In both protocols tested i.e pre-ischemia intervention and post-ischemia intervention, renal function improvement was assessed by measuring serum creatinine and BUN (blood urea nitrogen) at various time points post ischemia. Results are expressed below as % reduction from their control group at 24hrs post initiation of ischemia.

Test [4] deals with adrenomedullin mRNA. In words: In vitro induction of adrenomedullin mRNA (real-time PCR, normalized to 18S rRNA). In kind it is cell-based. The conditions noted are these: Homo sapiens, Hep3B, 6 h, Hep3B cell line, relative to vehicle control. The protocol:
Hep3B cell line (ATCC HB8064) was employed. […] At the end of 6 hours, cells were lysed and total RNA was isolated. Expression of adrenomedullin mRNA along-with expression of 18S rRNA was monitored by real-time PCR. Adrenomedullin mRNA expression was normalized relative to the expression of 18S rRNA. The results were expressed as fold induction of adrenomedullin mRNA relative to vehicle treated control.

Test [5] relates to 5/6 nephrectomized (5/6 NX) rats. As to the kind of experiment: Anemia associated with chronic kidney disease, 5/6 nephrectomized rat model. As to conditions: for fold increase in reticulocyte production index: compared to control group. In kind it is in vivo. The protocol:
The efficacy of the test compound to correct anemia associated with CKD was studied in an animal model of anemia - 5/6 nephrectomized (5/6 NX) rats^15,16,17. Animals were randomized based upon anemia and kidney dysfunction parameters and divided into two groups. One group received compound-10 (20mg/kg; b.i.d. i.p) for seven days while the control received respective vehicle. Blood sampling was done on day 3 and 7 post initiation of drug administration to check early markers of anemia correction.

Where [6] appears, read: Post-ischemia intervention, i.p. 0.3mg/kg as 1st dose & 0.1mg/kg as subsequent dose.
Where [7] appears, read: Pre-ischemia intervention, i.p. 10 mg/kg multiple dose.
Where [8] appears, read: day 7 of treatment, 5/6 NX rats, 20mg/kg b.i.d. i.p, compared to control.

In the case of `O=C(O)CNC(=O)c1c(O)nc2sc3c(n2c1=O)CCCCC3` [Compound 10, [(2-Hydroxy-4-oxo-6,7,8,9-tetrahydro-4H,5H-10-thia-1,4a-diaza-benzo[a]azulene-3-carbonyl)-amino] -acetic acid], the fold induction at 200 µM in test [1] was greater than 16; in test [2], 2 to 4; in test [4], greater than 8. The figures for the “% reduction BUN” value in test [3] (setting [6]) and in test [3] (setting [7]) were 17.0% and 18.0%, respectively. For the same compound, the figures for the “% reduction Ser.Creatinine” value in test [3] (setting [6]) and in test [3] (setting [7]) were 31.0% and 33.0%, respectively. In addition, the “circulating EPO levels” value in test [5] (5/6 NX rats, 20mg/kg b.i.d. i.p for seven days, vehicle control undetectable (<45 pg/ml)) lay within 115 to 3900 pg/mL. The “fold increase in reticulocyte production index” value in test [5] (day 3, 5/6 NX rats, 20mg/kg b.i.d. i.p) turned out to be 3 fold; in test [5] (day 7, 5/6 NX rats, 20mg/kg b.i.d. i.p), 5.6 fold. The “increase in erythrocyte count” value in test [5] (setting [8]) is 24%. The “increase in hematocrit percent” value in test [5] (setting [8]) came out at 25%. The “increase in hemoglobin content” value in test [5] (setting [8]) is 30%.
For `O=C(O)CNC(=O)c1c(O)nc2sc3c(n2c1=O)CCN(Cc1ccc(Cl)cc1)C3` [Compound 23, {[7-(4-Chloro-benzyl)-2-hydroxy-4-oxo-5,6,7,8-tetrahydro-4H-9-thia-1,4a,7-triaza-fluorene-3-carbonyl]-amino}-acetic acid], the fold induction at 200 µM in test [1] lay in the range of 9 to 16; in test [2], 2 to 4; in test [4], 2 to 4.
As to `O=C(O)CNC(=O)c1c(O)nc2sc3c(n2c1=O)CCN(C(=O)CC1CC1)C3` [Compound 27, {[7-(2-Cyclopropyl-acetyl)-2-hydroxy-4-oxo-5,6,7,8-tetrahydro-4H-9-thia-1,4a,7-triaza-fluorene-3-carbonyl]-amino}-acetic acid], the values for the fold induction at 200 µM in test [1], in test [2] and in test [4] were 9 to 16, 2 to 4 and greater than 8, respectively.
Taken in the same sequence, the figures for `CC(NC(=O)c1c(O)nc2sc3c(n2c1=O)CCCCC3)C(=O)O` (stereo not shown) [Compound 32, 2-[(2-Hydroxy-4-oxo-6,7,8,9-tetrahydro-4H,5H-10-thia-1,4a-diaza-benzo[a]azulene-3-carbonyl)-amino]-propionic acid] were 9 to 16, 2 to 4 and 2 to 4.
Turning to `CC1(C)CCc2c(sc3nc(O)c(C(=O)NCC(=O)O)c(=O)n23)C1` [Compound 34, [(2-Hydroxy-7,7-dimethyl-4-oxo-5,6,7,8-tetrahydro-4H-9-thia-1,4a-diaza-fluorene-3-carbonyl)-amino]-acetic acid], the fold induction at 200 µM was greater than 16 in test [1], 2 to 4 in test [2] and 5 to 8 in test [4].
